Measured values taken from PMC10314895, “Targeted protein degradation reveals BET bromodomains as the cellular target of Hedgehog pathway inhibitor-1” (Nature Communications, 2023).

Legend:
Assay type in all cases: binding
BRD2 [1] = molecular target: T1, BRD2 (Homo sapiens, UniProt P25440); test: BromoKd affinity assay (Eurofins Discovery); parameters: second bromodomain BD2, BRD2(2)
Target sequence in this assay (P25440 344-453 limits assumed): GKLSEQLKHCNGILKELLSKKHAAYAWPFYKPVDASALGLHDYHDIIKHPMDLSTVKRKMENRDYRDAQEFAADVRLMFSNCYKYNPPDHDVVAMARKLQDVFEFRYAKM

BRD3 [2] = molecular target: T2, BRD3 (Homo sapiens, UniProt Q15059); test: BromoKd affinity assay (Eurofins Discovery)
T2 sequence (Q15059 2-726): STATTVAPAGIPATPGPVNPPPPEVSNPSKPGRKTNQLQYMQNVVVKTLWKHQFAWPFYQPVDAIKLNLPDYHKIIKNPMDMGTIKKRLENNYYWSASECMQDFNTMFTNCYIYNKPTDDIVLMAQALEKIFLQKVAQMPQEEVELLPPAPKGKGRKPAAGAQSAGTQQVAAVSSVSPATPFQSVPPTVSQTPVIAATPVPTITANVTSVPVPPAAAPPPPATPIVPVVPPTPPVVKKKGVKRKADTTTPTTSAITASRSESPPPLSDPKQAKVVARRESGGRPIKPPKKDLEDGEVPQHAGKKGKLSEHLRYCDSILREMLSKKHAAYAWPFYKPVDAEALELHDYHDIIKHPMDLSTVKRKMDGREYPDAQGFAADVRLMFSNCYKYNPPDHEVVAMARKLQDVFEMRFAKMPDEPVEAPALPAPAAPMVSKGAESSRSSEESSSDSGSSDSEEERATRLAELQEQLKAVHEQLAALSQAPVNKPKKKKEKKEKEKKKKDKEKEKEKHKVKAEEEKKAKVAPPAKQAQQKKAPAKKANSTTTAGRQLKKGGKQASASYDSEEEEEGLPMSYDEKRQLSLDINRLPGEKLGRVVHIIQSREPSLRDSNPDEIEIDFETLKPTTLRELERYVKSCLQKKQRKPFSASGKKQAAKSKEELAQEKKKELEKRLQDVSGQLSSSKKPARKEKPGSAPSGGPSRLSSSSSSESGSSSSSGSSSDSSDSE

BRD4 [3] = molecular target: T3, BRD4 (Homo sapiens, UniProt O60885); test: BromoKd affinity assay (Eurofins Discovery)
BRD2 [4] = molecular target: T1, BRD2; test: BromoKd affinity assay (Eurofins Discovery); cellular degradation competed by HPI-1
Target sequence in this assay (P25440 whole entry): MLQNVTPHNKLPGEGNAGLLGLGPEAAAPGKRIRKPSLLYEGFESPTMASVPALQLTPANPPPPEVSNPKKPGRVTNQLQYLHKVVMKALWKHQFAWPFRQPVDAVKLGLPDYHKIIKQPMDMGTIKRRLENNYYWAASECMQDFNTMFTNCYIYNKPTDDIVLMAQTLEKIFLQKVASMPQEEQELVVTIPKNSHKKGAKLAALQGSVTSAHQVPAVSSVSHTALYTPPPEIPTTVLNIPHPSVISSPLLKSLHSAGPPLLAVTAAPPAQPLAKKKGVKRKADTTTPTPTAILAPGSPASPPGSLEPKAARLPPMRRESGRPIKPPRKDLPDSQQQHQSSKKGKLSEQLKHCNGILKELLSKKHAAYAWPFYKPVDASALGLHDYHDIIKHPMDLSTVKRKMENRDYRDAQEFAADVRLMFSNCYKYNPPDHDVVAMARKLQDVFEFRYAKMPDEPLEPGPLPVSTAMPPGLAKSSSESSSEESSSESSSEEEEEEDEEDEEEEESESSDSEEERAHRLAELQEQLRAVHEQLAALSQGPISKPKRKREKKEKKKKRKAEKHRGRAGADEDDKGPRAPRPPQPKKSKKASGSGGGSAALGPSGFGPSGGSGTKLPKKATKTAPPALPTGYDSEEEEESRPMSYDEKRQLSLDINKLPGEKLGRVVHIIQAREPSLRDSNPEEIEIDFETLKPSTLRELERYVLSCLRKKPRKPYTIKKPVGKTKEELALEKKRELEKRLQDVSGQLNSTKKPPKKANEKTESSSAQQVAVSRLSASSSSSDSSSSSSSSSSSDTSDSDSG

BRD4 [5] = molecular target: T3, BRD4; test: as above
BRD3 [6] = molecular target: T2, BRD3; test: as above

SMILES | Kd (BRD2 [1]) [µM] | Kd (BRD3 [2]) [µM] | Kd (BRD4 [3]) [µM] | Kd (BRD2 [4]) [µM] | Kd (BRD4 [5]) [µM] | Kd (BRD3 [6]) [µM]
COCCOC(=O)C1=C(C)NC2=C(C(=O)CC(c3ccccc3OC)C2)C1c1cccc(O)c1 (stereo not drawn) [HPI-1] | 0.017 | ~0.015 | ~0.015 |  |  | 
COCCOC(=O)C1=C(C)NC2=C(C(=O)CC(c3ccccc3OC)C2)C1c1cccc(OCc2cn(CCCCCCOc3cccc4c3C(=O)N(C3CCC(=O)NC3=O)C4=O)nn2)c1 (stereo not drawn) [HPP-9] |  |  |  | ~0.2 | ~0.2 | ~0.2
